From patent publication EP1189688B1, “W/O TYPE EMULSIONS WITH A HIGH WATER CONTENT CONTAINING MEDIUM POLAR LIPIDS” (Beiersdorf AG, priority 1999, dated 2000)

Assay: Interfacial tension of the lipid against water (measure of polarity)
Type: physicochemical
Settings: lower value = more polar oil
Excerpt: Öle und Fette unterscheiden sich unter anderem in ihrer Polarität, welche schwierig zu definieren ist. Es wurde bereits vorgeschlagen, die Grenzflächenspannung gegenüber Wasser als Maß für den Polaritätsindex eines Öls bzw. einer Ölphase anzunehmen. Dabei gilt, daß die Polarität der betreffenden Ölphase umso größer ist, je niedriger die Grenzflächenspannung zwischen dieser Ölphase und Wasser ist. Erfindungsgemäß wird die Grenzflächenspannung als ein mögliches Maß für die Polarität einer gegebenen Ölkomponente angesehen.
Die Grenzflächenspannung ist diejenige Kraft, die an einer gedachten, in der Grenzfläche zwischen zwei Phasen befindlichen Linie der Länge von einem Meter wirkt. Die physikalische Einheit für diese Grenzflächenspannung errechnet sich klassisch nach der Beziehung Kraft/Länge und wird gewöhnlich in mN/m (Millinewton geteilt durch Meter) wiedergegeben. Sie hat positives Vorzeichen, wenn sie das Bestreben hat, die Grenzfläche zu verkleinern. Im umgekehrten Falle hat sie negatives Vorzeichen.
Die nachfolgende Tabelle 1 führt mittelpolare Lipide auf, die die erfindungsgemäß sind. Die betreffenden Grenzflächenspannungen gegen Wasser sind in der letzten Spalte angegeben. Es ist jedoch auch vorteilhaft, Gemische aus höher- und niederpolaren und dergleichen zu verwenden, sofern gewährleistet ist, daß die Gesamtpolarität der Ölphase im beanspruchten Bereich liegt. Tabelle 1

| Grenzflächenspannungen gegen Wasser | Molecule |
| --- | --- |
| 28,4 mN/m | CCCCCCCCCCCCCCCCCC(=O)OCCCCCCCC [Cetiol® 868, Octyl Stearate] |
| 28,7 mN/m | CCCCCCCCCCCCCCCCCCOC(=O)CCCCCC [Tegosoft® SH, Stearyl Heptanoate] |
| 20,2 mN/m | CCCCCCCC(=O)OCC(COC(=O)CCCCCCC)OC(=O)CCCCCCC [Trivent® OCG, Tricaprylin] |

More lines, now with the values behind:

| Molecule | Grenzflächenspannungen gegen Wasser |
| --- | --- |
| CCCCCCCCCCC(CO)CCCCCCCC (centres unmarked) [Eutanol® G, Octyldodecanol] | 24,8 mN/m |
| CCCCCCCCC(CO)CCCCCC (centres unmarked) [Isofol® 16, Hexyl Decanol] | 24,3 mN/m |
| CCCCCCCCCCCCCCCCCC(=O)OC(C)C [Isopropylstearat, Isopropyl Stearate] | 21,9 mN/m |
| CCCCCCCCCCCCCC(=O)OCC(CCCCCCCC)CCCCCCCCCC (centres unmarked) [MOD, Octyldodeceyl Myristate] | 22,1 mN/m |
| Octyl lsostearate [Prisorine® 2036] | 29,7 mN/m |
